Measurements: US9211310B2, “Use of a Chinese medicine composition in preparing medicaments for treating secondary prevention of myocardial infarction” (TASLY PHARMACEUTICAL GROUP CO., LTD, priority 2010, dated 2015)

Test system: patients after acute myocardial infarction
Experiment: Life quality, Seattle Angina Questionnaire (SAQ), same clinical trial
Assay type: in vivo, human
Settings: PP
Description: 3508 patients who were in accordance with the diagnostic standards of AMI for 28 days to 2 years and differentiated as Qi deficiency and blood stagnation syndrome by TCM were studied. 0.5 g Chinese medicine composition prepared by the method of EXAMPLE 1 (Coded as QSYQ) was administrated half an hour after meal, 3 times per day.
There were 19 questions in the Seattle angina questionnaire (SAQ), including 5 parts: physical limitation (PL), anginal stability (AS), anginal frequency (AF), treatment satisfaction (TS) and disease perception (DP). After being given necessary explanation by doctors, the questions were answered independently by patients.
They included the overall survival time, angina pectoris score, TCM symptom score and life quality score, where angina pectoris score, TCM symptom score and life quality score were evaluated at randomization, in 1st, 3rd, 6th, 9th, 12th month after treatment and 18th month after follow-up.
All evaluation results of SAQ were described during the period of observation, and Wilcoxon rank sum test was used for inter-group comparison.
The evaluation results in the SAQ were depicted in different observations, and inter-group comparison was tested by Wilcoxon Rank-sum test.

CC(=O)Oc1ccccc1C(=O)O [Control group, aspirine]
SAQ Question 1-7: Moserately limited, patients (%) (3 months after treatment): (14.91%)
SAQ Question 1-7: Not limited, patients (%) (3 months after treatment): (13.46%)
SAQ Question 1-7: Other reasons, patients (%) (3 months after treatment): (3.11%)
SAQ Question 1-7: Severely limited, patients (%) (3 months after treatment): (16.01%)
SAQ Question 1-7: Slightly limited, patients (%) (3 months after treatment): (28.71%)
SAQ Question 1-8: Mildly limited, patients (%) (3 months after treatment): (25.82%)
SAQ Question 1-8: Moderately limited, patients (%) (3 months after treatment): (17.90%)
SAQ Question 1-8: Not limited, patients (%) (3 months after treatment): (10.48%)
SAQ Question 1-8: Other reasons, patients (%) (3 months after treatment): (2.91%)
SAQ Question 1-8: Severely limieted, patients (%) (3 months after treatment): (21.30%)
SAQ Question 1-8: Slightly limited, patients (%) (3 months after treatment): (21.58%)
8th question: Dissatisfied, patients (%) (6 months after treatment): (0.07%)
8th question: Highly satisfied, patients (%) (6 months after treatment): (20.69%)
8th question: Mostly satisfied, patients (%) (6 months after treatment): (56.70%)
8th question: Partly satisfied, patients (%) (6 months after treatment): (20.96%)
9th question: Few, patients (%) (6 months after treatment): (34.99%)
9th question: Mild, patients (%) (6 months after treatment): (34.44%)
9th question: Moderate, patients (%) (6 months after treatment): (10.54%)
9th question: Severe, patients (%) (6 months after treatment): (0.21%)
9th question: Uneffective, patients (%) (6 months after treatment): (19.83%)
10th question: Dissatisfied, patients (%) (6 months after treatment): (20.36%)
10th question: Highly satisfied, patients (%) (6 months after treatment): (4.88%)
10th question: Mostly dissatisfied, patients (%) (6 months after treatment): (21.32%)
10th question: Mostly satisfied, patients (%) (6 months after treatment): (26.34%)
10th question: Partly satisfied, patients (%) (6 months after treatment): (27.10%)
11th question: Continuously worried, patients (%) (6 months after treatment): (3.44%)
11th question: No worried, patients (%) (6 months after treatment): (4.81%)
11th question: Occasionally worried, patients (%) (6 months after treatment): (42.68%)
11th question: Often worried, patients (%) (6 months after treatment): (14.57%)
11th question: Seldom worried, patients (%) (6 months after treatment): (34.50%)
SAQ 4th question, 1-2 times per week: % of patients (6 months after treatment): (18.08%)
SAQ 4th question, 1-2 times per week: number of patients (6 months after treatment): 263
SAQ 4th question, 1-3 times per day: % of patients (6 months after treatment): (3.85%)
SAQ 4th question, 1-3 times per day: number of patients (6 months after treatment): 56
SAQ 4th question, <1 time per week: % of patients (6 months after treatment): (11.34%)
SAQ 4th question, <1 time per week: number of patients (6 months after treatment): 165
SAQ 4th question, Not used: % of patients (6 months after treatment): (60.14%)
SAQ 4th question, Not used: number of patients (6 months after treatment): 875
SAQ 4th question, ≧3 times per week: % of patients (6 months after treatment): (6.53%)
SAQ 4th question, ≧3 times per week: number of patients (6 months after treatment): 95
SAQ 4th question, ≧4 times per day: % of patients (6 months after treatment): (0.07%)
SAQ 4th question, ≧4 times per day: number of patients (6 months after treatment): 1
SAQ 5th question, 1-2 times per week: % of patients (6 months after treatment): (27.01%)
SAQ 5th question, 1-2 times per week: number of patients (6 months after treatment): 393
SAQ 5th question, 1-3 times per day: % of patients (6 months after treatment): (11.00%)
SAQ 5th question, 1-3 times per day: number of patients (6 months after treatment): 160
SAQ 5th question, <1 time per week: % of patients (6 months after treatment): (28.18%)
SAQ 5th question, <1 time per week: number of patients (6 months after treatment): 410
SAQ 5th question, No onset: % of patients (6 months after treatment): (4.47%)
SAQ 5th question, No onset: number of patients (6 months after treatment): 65
SAQ 5th question, ≧3 times per week: % of patients (6 months after treatment): (28.93%)
SAQ 5th question, ≧3 times per week: number of patients (6 months after treatment): 421
SAQ 5th question, ≧4 times per day: % of patients (6 months after treatment): (0.41%)
SAQ 5th question, ≧4 times per day: number of patients (6 months after treatment): 6
SAQ 6th question, Dissatisfied: % of patients (6 months after treatment): (0.00%)
SAQ 6th question, Dissatisfied: number of patients (6 months after treatment): 0
SAQ 6th question, Highly satisfied: % of patients (6 months after treatment): (22.27%)
SAQ 6th question, Highly satisfied: number of patients (6 months after treatment): 324
SAQ 6th question, Mostly dissatisfied: % of patients (6 months after treatment): (1.65%)
SAQ 6th question, Mostly dissatisfied: number of patients (6 months after treatment): 24
SAQ 6th question, Mostly satisfied: % of patients (6 months after treatment): (55.95%)
SAQ 6th question, Mostly satisfied: number of patients (6 months after treatment): 814
SAQ 6th question, Partly satisfied: % of patients (6 months after treatment): (20.14%)
SAQ 6th question, Partly satisfied: number of patients (6 months after treatment): 293
SAQ 7th question, Dissatisfied: % of patients (6 months after treatment): (0.07%)
SAQ 7th question, Dissatisfied: number of patients (6 months after treatment): 1
SAQ 7th question, Highly satisfied: % of patients (6 months after treatment): (25.67%)
SAQ 7th question, Highly satisfied: number of patients (6 months after treatment): 373
SAQ 7th question, Mostly dissatisfied: % of patients (6 months after treatment): (1.10%)
SAQ 7th question, Mostly dissatisfied: number of patients (6 months after treatment): 16
SAQ 7th question, Mostly satisfied: % of patients (6 months after treatment): (58.22%)
SAQ 7th question, Mostly satisfied: number of patients (6 months after treatment): 846
SAQ 7th question, Partly satisfied: % of patients (6 months after treatment): (14.93%)
SAQ 7th question, Partly satisfied: number of patients (6 months after treatment): 217
SAQ Question 1-1 Mildly limited, number of patients (6 months after treatment): 22
SAQ Question 1-1 Mildly limited, percent of patients (6 months after treatment): (1.52%)
SAQ Question 1-1 Moderately limited, number of patients (6 months after treatment): 4
